This is an account of results in patent US9487504B2, “Imidazolyl analogs as syk inhibitors” (Merck Sharp & Dohme Corp., priority 2012, dated 2016).

Molecules are shown by their SMILES. pIC50: −log10 of the molar value. Where two headings read alike, the source gives them in different places.

The target in the experiment is T1, recombinant human GST-Syk (Homo sapiens, UniProt P43405).
T1 construct: purchased Carna Biosciences 08-176
The experiment can be described thus: Homogeneous Time-Resolved Fluorescence (HTRF) assay for the recombinant human Syk enzyme. It is filed as biochemical. Particulars: ATP 25 μM, 10-dose titration. The procedure: Syk inhibition may be determined using the following assay protocol:
Homogeneous Time-Resolved Fluorescence (HTRF) Assay for the Recombinant Human Syk Enzyme:
A recombinant GST-hSyk fusion protein was used to measure potency of compounds to inhibit human Syk activity. The recombinant human GST-Syk (Carna Biosciences #08-176) ([…]) was incubated with various concentrations of the inhibitor diluted in DMSO (0.1% final concentration) for 10 minutes at room temperature in 15 mM Tris-HCl (pH 7.5), 0.01% tween 20, 2 mM DTT in 384 well plate format. To initiate the reaction the biotinylated substrate peptide (250 nM final concentration) that contains the phosphorylation site for Syk was added with magnesium (5 mM final concentration) and ATP (25 μM final concentration). Final volume of the reaction was 10 μL. Phosphorylation of the peptide was allowed to proceed for 45 minutes at room temperature. To quench the reaction and detect the phosphorylated product, 2 nM of a Europium-anti-phosphotyrosine antibody (Perkin Elmer #AD0161) and 70 nM SA-APC (Perkin-Elmer #CR130-100) were added together in 15 mM Tris pH 7.5, 40 mM EDTA, 0.01% tween 20. Final volume of the quenching solution was 10 μL. The resulting HTRF signal was measured after 30 minutes on an EnVision (Perkin-Elmer) reader using a time-resolved fluorescence protocol. IC50 was determined following 10-dose titration (10 μM to 0.508 nM) and four parameter logistic curve fitting using the Merck Assay Data Analyzer. The rhSyk activity (IC50) is expressed as +++ (100 nM or less), ++ (between 100 and 1000 nM), + (between 1 and 10 μM).
For orientation: In TR-FRET formats the signal depends on donor and acceptor labels being close together.

As to `CCOC(=O)C1(C)CC=C(c2cn(-c3cc(C)cc(Nc4nccc(C(F)(F)F)n4)c3)cn2)CC1` (racemic) [Example 19, Ethyl 1-methyl-4-[1-(3-methyl-5-{[4-(trifluoromethyl)-pyrimidin-2-yl]amino}-phenyl)-1H-imidazol-4-yl]cyclohex-3-ene-1-carboxylate], the pIC50 (read-out: rhSYK Activity) is 6.00 to 7.00. Same read-out and setting: next, `Cc1cc(Nc2nccc(C(F)(F)F)n2)cc(-n2cnc(C3=CCC(C)(C(=O)O)CC3)c2)c1` (racemic) [Example 21, 1-methyl-4-[1-(3-methyl-5-{[4-(trifluoromethyl)-pyrimidin-2-yl]amino}-phenyl)-1H-imidazol-4-yl]cyclohex-3-ene-1-carboxylic acid]: at least 7.00; `Cc1cc(Nc2nccc(C(F)(F)F)n2)cc(-n2cnc(C3(O)CCC(C(=O)O)C(C)(C)C3)c2)c1` (racemic) [Example 25, 4-hydroxy-2,2-dimethyl-4-[1-(3-methyl-5-{[4-(trifluoromethyl)pyrimidin-2-yl]amino}phenyl)-1H-imidazol-4-yl]-cyclohexanecarboxylic acid]: at least 7.00; `Cc1cc(Nc2nccc(C(F)(F)F)n2)cc(-n2cnc(C(C)(O)CO)c2)c1` (racemic) [Example 113, (rac)-2-[1-(3-Methyl-5-{[4-(trifluoromethyl)pyrimidin-2-yl]amino}phenyl)-1H-imidazol-4-yl]propane-1,2-diol]: at least 7.00. The same measure, in the same setting: next, `Cc1cc(Nc2nccc(C(F)(F)F)n2)cc(-n2cnc(C(C)(O)[C@H]3CC[C@H](C(N)=O)CC3)c2)c1` (relative stereo) [Example 7, trans-4-{1-hydroxy-1-[1-(3-methyl-5-{[4-(trifluoromethyl)pyrimidin-2-yl]amino}phenyl)-1H-imidazol-4-yl]ethyl]cyclohexanecarboxamide]: at least 7.00. Consider `Cc1cc(Nc2nccc(C)n2)cc(-n2cnc(C(C)(O)[C@H]3CC[C@H](C(=O)O)CC3)c2)c1` (relative stereo) [Example 9, trans-4-[1-hydroxy-1-(1-{3-methyl-5-[(4-methyl-pyrimidin-2-yl)amino]-phenyl}-1H-imidazol-4-yl)ethyl]cyclohexane-carboxylic acid], for which the pIC50 runs as follows: (read-out: rhSYK Activity) at least 7.00; (read-out: rhSYK IC50) 7.83. The like results for `Cc1cc(Nc2nccc(C(F)(F)F)n2)cc(-n2cnc(C(C)(O)[C@H]3CC[C@H](C(=O)O)CC3)c2)c1` (relative stereo) [Example 10, trans-4-{1-hydroxy-1-[1-(3-methyl-5-{[4-(trifluoromethyl)pyrimidin-2-yl]amino}phenyl)-1H-imidazol-4-yl]ethyl}-cyclohexanecarboxylic acid] were, in that order, at least 7.00 and 8.75. Turning to `CCCCOC(=O)[C@H]1CC[C@H](C(C)(O)c2cn(-c3cc(C)cc(Nc4nccc(C)n4)c3)cn2)CC1` (relative stereo) [Example 11, Butyl trans-4-[1-hydroxy-1-(1-{3-methyl-5-[(4-methylpyrimidin-2-yl)amino]phenyl}-1H-imidazol-4-yl)ethyl]-cyclohexanecarboxylate], the pIC50 (read-out: rhSYK Activity) was 6.00 to 7.00. Turning to `CCCCOC(=O)[C@H]1CC[C@H](C(C)(O)c2cn(-c3cc(C)cc(Nc4nccc(C(F)(F)F)n4)c3)cn2)CC1` (relative stereo) [Example 12, Butyl trans-4-{1-hydroxy-1-[1-(3-methyl-5-[(4-(trifluoromethyl)-pyrimidin-2-yl]amino}-phenyl)-1H-imidazol-4-yl]ethyl}cyclohexane-carboxylate], the pIC50 (read-out: rhSYK Activity) was 6.00 to 7.00. With `Cc1cc(Nc2nccc(C(F)(F)F)n2)cc(-n2cnc([C@@]3(O)CC[C@@](C)(C(=O)O)C[C@@H]3O)c2)c1` (single isomer, unassigned) [5 (isomer 1)], the pIC50 (read-out: rhSYK Activity) is at least 7.00. Same read-out and setting: the value for `Cc1cc(Nc2nccc(C(F)(F)F)n2)cc(-n2cnc([C@]3(O)CC[C@@](C)(C(=O)O)C[C@H]3O)c2)c1` (single isomer, unassigned) [5 (isomer 2)] was at least 7.00.

Take `CCOC(=O)C1CCC(O)(c2cn(-c3cc(C)cc(Nc4nccc(C(F)(F)F)n4)c3)cn2)CC1` (stereo not drawn) [1, Step 1]: the pIC50 (read-out: rhSYK IC50) is 7.90. Regarding `Cc1cc(Nc2nccc(C(F)(F)F)n2)cc(-n2cnc([C@H]3CC[C@@H](C(=O)O)CC3)c2)c1` [2 (cis), Cis-4-[1-(3-methyl-5-{[4-(trifluoromethyl)pyrimidin-2-yl]amino}phenyl)-1H-imidazol-4-yl]cyclohexanecarboxylic acid], the pIC50 reads like this: (read-out: rhSYK Activity) at least 7.00; (read-out: rhSYK IC50) 7.90.

As to `Cc1cc(Nc2nccc(C(F)(F)F)n2)cc(-n2cnc([C@H]3CC[C@H](C(=O)O)CC3)c2)c1` [2 (trans), Trans-4-[1-(3-methyl-5-{[4-(trifluoromethyl)pyrimidin-2-yl]amino}phenyl)-1H-imidazol-4-yl]cyclohexanecarboxylic acid], the pIC50 is, setting by setting: (read-out: rhSYK Activity) at least 7.00; (read-out: rhSYK IC50) 8.92.

Consider `CNC(=O)[C@H]1CC[C@](O)(c2cn(-c3cc(C)cc(Nc4nccc(C(F)(F)F)n4)c3)cn2)CC1` [Example 1, Cis-4-hydroxy-N-methyl-4-[1-(3-methyl-5-{[4-(trifluoromethyl)pyrimidin-2-yl]amino}phenyl)-1H-imidazol-4-yl]cyclohexanecarboxamide], for which the pIC50 is, setting by setting: (read-out: rhSYK Activity) at least 7.00; (read-out: rhSYK IC50) 8.21. Regarding `Cc1cc(Nc2nccc(C(F)(F)F)n2)cc(-n2cnc(C3=CCC(C(=O)O)CC3)c2)c1` (stereo not drawn) [Example 3, 4-[1-(3-methyl-5-{[4-(trifluoromethyl)pyrimidin-2-yl]amino}phenyl)-1H-imidazol-4-yl]cyclohex-3-ene-1-carboxylic acid], for the setting “read-out: rhSYK Activity”, the pIC50 is at least 7.00. On to `Cc1cc(Nc2nccc(C(F)(F)F)n2)cc(-n2cnc(C3=CCC(C(=O)O)C(C)(C)C3)c2)c1` (stereo not drawn) [Example 4, 6,6-Dimethyl-4-[1-(3-methyl-5-{[4-(trifluoromethyl)pyrimidin-2-yl]amino}phenyl)-1H-imidazol-4-yl]cyclohex-3-ene-1-carboxylic acid], for which the pIC50 was at least 7.00 (read-out: rhSYK Activity) and 9.05 (read-out: rhSYK IC50).

For the molecule `Cc1cc(Nc2nccc(C(F)(F)F)n2)cc(-n2cnc(C3(O)CCC(CC(N)=O)CC3)c2)c1` (stereo not drawn) [Example 6, 2-{cis-4-hydroxy-4-[1-(3-methyl-5-{[4-(trifluoromethyl)pyrimidin-2-yl]amino}phenyl)-1H-imidazol-4-yl]cyclohexyl)acetamide], where the note is “read-out: rhSYK Activity”, the pIC50 was at least 7.00.

With `Cc1cc(Nc2nccc(C3CC3)n2)cc(-n2cnc(C[C@H](O)C(=O)O)c2)c1` [Example 8, (2S)-3-(1-{3-[(4-cyclopropylpyrimidin-2-yl)amino]-5-methylphenyl}-1H-imidazol-4-yl)-2-hydroxypropanoic acid], the pIC50 (read-out: rhSYK Activity) is at least 7.00. On to `Cc1cc(Nc2cc(C(F)(F)F)ccn2)nc(-n2cnc([C@]3(O)CC[C@H](CC(=O)O)CC3)c2)c1` [Example 13, {trans-4-hydroxy-4-[1-(4-methyl-6-{[4-(trifluoromethyl)pyridin-2-yl]amino}pyridin-2-yl)-1H-imidazol-4-yl]cyclohexyl}acetic acid], for which, under “read-out: rhSYK Activity”, the pIC50 was at least 7.00. `Cc1cc(Nc2cc(C(F)(F)F)ccn2)nc(-n2cnc([C@]3(O)CC[C@@H](CC(=O)O)CC3)c2)c1` [Example 14, {cis-4-hydroxy-4-[1-(4-methyl-6-{[4-(trifluoromethyl)pyridin-2-yl]amino}pyridin-2-yl)-1H-imidazol-4-yl]cyclohexyl}acetic acid]: the pIC50 by setting is: (read-out: rhSYK Activity) at least 7.00; (read-out: rhSYK IC50) 9.06. As to `Cc1cc(Nc2nccc(C(F)(F)F)n2)cc(-n2cnc([C@]3(O)CC[C@H](CC(=O)O)CC3)c2)c1` [Example 15, {trans-4-hydroxy-4-[1-(3-methyl-5-{[4-(trifluoromethyl)pyrimidin-2-yl]amino}phenyl)-1H-imidazol-4-yl]-cyclohexyl}acetic acid], the pIC50 (read-out: rhSYK Activity) was at least 7.00. Consider `Cc1cc(Nc2nccc(C(F)(F)F)n2)cc(-n2cnc([C@]3(O)CC[C@@H](CC(=O)O)CC3)c2)c1` [Example 16, {cis-4-hydroxy-4-[1-(3-methyl-5-{[4-(trifluoromethyl)pyrimidin-2-yl]amino}phenyl)-1H-imidazol-4-yl]-cyclohexyl}acetic acid], for which the pIC50 (read-out: rhSYK Activity) is at least 7.00 and the pIC50 (read-out: rhSYK IC50) is 8.79.

Regarding `COC(=O)C[C@H]1CC[C@@](O)(c2cn(-c3cc(C)cc(Nc4nccc(C(F)(F)F)n4)c3)cn2)CC1` [Example 17, Methyl {trans-4-hydroxy-4-[1-(3-methyl-5-{[4-(trifluoromethyl)pyrimidin-2-yl]amino}phenyl)-1H-imidazol-4-yl]-cyclohexyl}acetate], the pIC50 (read-out: rhSYK Activity) is at least 7.00. The same measure, in the same setting: next, `COC(=O)C[C@H]1CC[C@](O)(c2cn(-c3cc(C)cc(Nc4nccc(C(F)(F)F)n4)c3)cn2)CC1` [Example 18, Methyl {cis-4-hydroxy-4-[1-(3-methyl-5-{[4-(trifluoromethyl)pyrimidin-2-yl]amino}phenyl)-1H-imidazol-4-yl]-cyclohexyl}acetate]: at least 7.00.
